Reference: patent US20060194769A1, “Small molecules that reduce fungal growth” (University of Vermont and State Agricultural College, priority 2005, published 2006)

How the values were obtained:
[1] = test system: Candida albicans; assay: Quantification of inhibition of the budded-to-hyphal-form transition and synergy assay in 10% serum media; format: cell-based; conditions: 37° C., synergy assay: two molecules (100 μM) added together, normalized to % hyphae formed when no molecule was added
Description: Cultures of Candida albicans were grown as described in Toenjes K. A. et al. (Antimicrobial Agents and Chemotherapy, 49(3):963-972, 2005). To induce hyphal growth, stationary-phase cultures were diluted into 5 ml of either YPD (1% yeast extract, 2% peptone, and 2% dextrose) plus 10% (vol/vol) fetal calf serum, Spider medium, Lee's medium (Lee, K. et al., Sabouraudia, 13:148-153, 1975), or M199 pH 8 medium (Sigma-Aldrich, St. Louis, Mo.) and grown at 37° C. with shaking at 250 rpm.
Quantification of inhibition of the budded-to-hyphal-form transition was accomplished by counting the numbers of individual budded cells versus the number of hyphae in the population. More than 100 cells were counted for each assay in duplicate and all assays were repeated four times. Individual hyphae were counted as one cell, although the hyphae usually consisted of multiple individual hyphal cells. The percentage of hyphae reported was normalized to the percentage of hyphae formed when no molecule was added.
For the synergy assay, two different molecules (100 μM) were added together and the assay was performed in 10% serum media to induce hyphal formation.

[2] = test system: tumor; conditions: cited from earlier work

SMILES: CN1CCN(C2=Nc3cc(Cl)ccc3Nc3ccccc32)CC1 [Clozapine, 8-Chloro-11-(4-methyl-1-piperazinyl)-5H-dibenzo[b,e][1,4]-diazepine]
- % hyphae in 10% serum [1]: 33%

SMILES: O=C(Nc1ccccc1)c1cc([N+](=O)[O-])ccc1Cl [GW9662, 2-Chloro-5-nitro-N-phenylbenzamide]
- % hyphae in 10% serum [1]: 59%

SMILES: CCOC(=O)C1=C(N)Oc2ccc(Br)cc2C1C(C#N)C(=O)OCC (centres unmarked) [HA14-1, Ethyl[2-amino-6-bromo-4-(1-cyano-2-ethoxy-2-oxoethyl)]-4H-chromene-3-carboxylate]
- % hyphae in 10% serum [1]: 34%

SMILES: CCC(C)C(COC(Cc1ccccc1)C(=O)NC(CCS(C)(=O)=O)C(=O)OC(C)C)NCC(N)CS [L-744,832, (2S)-2-[[(2S)-2-[(2S,3S)-2-[(2R)-2-Amino-3-mercaptopropyl]amino]-3-methylpentyl]oxy]-1-oxo-3-phenylpropyl]amino]-4-(methylsulfonyl)-butanoic Acid 1-Methylethyl Ester]
- anti-tumor activity [2]: potent anti-tumor activity

SMILES: OCc1ccc(-c2nn(Cc3ccccc3)c3ccccc23)o1 [YC-1, 3-(5′-Hydroxymethyl-2′-furyl)-1-benzylindazole]
- anti-tumor activity [2]: potent anti-tumor activity
